Data on 1 compound can be found in US4460508A, “5-Diazacycloalkylimidazo[1,2-c][1,3]benzodiazepines” (Ciba-Geigy Corporation, priority 1982, dated 1984).

The experiment has as its system α-adrenergic. Kind of experiment: α-adrenergic blocking activity in vitro.

As for `CN1CCN(C2=Nc3ccccc3Cc3nccn32)CC1` [example 1, 5-(4-methyl-1-piperazinyl)-11H-imidazo[1,2-c][1,3]benzodiazepine], the α-adrenergic blocking activity result is “only minimal”.
